In ChEMBL document CHEMBL3286227, “Guanidinium-based derivatives: searching for new kinase inhibitors” (Eur J Med Chem, 2014):
The source made the active and inactive calls. The rule behind the calls is not given here.

How the values were obtained:
HL-60 [1] = experiment: Cell cycle arrest in human HL60 cells assessed as accumulation at S phase at 1 uM after 72 hrs by propidium iodide staining-based flow cytometry (reference value: 16.4 +/- 0.8%); format: functional
HL-60 [2] = experiment: Cell cycle arrest in human HL60 cells assessed as accumulation at pre-G1 phase at 50 uM after 72 hrs by propidium iodide staining-based flow cytometry (reference value: 0.14%); format: functional
HL-60 [3] = experiment: Cell cycle arrest in human HL60 cells assessed as accumulation at G0/G1 phase at 1 uM after 48 hrs by propidium iodide staining-based flow cytometry (reference value: 57.0 +/- 1.0%); format: functional
HL-60 [4] = experiment: Cell cycle arrest in human HL60 cells assessed as accumulation at G0/G1 phase at 1 uM after 72 hrs by propidium iodide staining-based flow cytometry (reference value: 65.7 +/- 0.1%); format: functional
HL-60 [5] = experiment: Induction of apoptosis in human HL60 cells assessed as cell shrinkage at 50 uM after 72 hrs by microscopy relative to vehicle-treated control; format: functional, cell-based
[6] = biological target: Casein kinase I isoform delta (Homo sapiens, UniProt P48730); experiment: Inhibition of human recombinant casein kinase-1 delta using casein as substrate after 60 mins by kinase-glo luminescence assay
Chain of Casein kinase I isoform delta (P48730 whole entry, canonical isoform): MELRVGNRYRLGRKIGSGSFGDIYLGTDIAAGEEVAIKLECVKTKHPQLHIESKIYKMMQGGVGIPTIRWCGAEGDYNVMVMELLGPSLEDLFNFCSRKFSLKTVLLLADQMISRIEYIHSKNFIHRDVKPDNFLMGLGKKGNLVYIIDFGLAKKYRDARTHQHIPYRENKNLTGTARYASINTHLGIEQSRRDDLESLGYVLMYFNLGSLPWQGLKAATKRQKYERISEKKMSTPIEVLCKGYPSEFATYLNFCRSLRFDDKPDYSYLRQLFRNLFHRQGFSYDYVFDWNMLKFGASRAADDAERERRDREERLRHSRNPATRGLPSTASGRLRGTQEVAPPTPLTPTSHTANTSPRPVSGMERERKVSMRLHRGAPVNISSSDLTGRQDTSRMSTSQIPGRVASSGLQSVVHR

HL-60 [7] = experiment: Cell cycle arrest in human HL60 cells assessed as accumulation at Gn phase at 25 uM after 72 hrs by propidium iodide staining-based flow cytometry (reference value: 2.49 +/- 0.3%); format: functional
HL-60 [8] = experiment: Cell cycle arrest in human HL60 cells assessed as accumulation at G2/M phase at 1 uM after 48 hrs by propidium iodide staining-based flow cytometry (reference value: 18.4 +/- 1.3%); format: functional
[9] = biological target: Serine/threonine-protein kinase B-raf (Homo sapiens) (UniProt P15056); experiment: Competitive binding to B-RAF kinase (unknown origin) at 100 nM to 100 uM after 60 to 120 mins by FRET analysis
Chain of Serine/threonine-protein kinase B-raf (Homo sapiens) (P15056 whole entry): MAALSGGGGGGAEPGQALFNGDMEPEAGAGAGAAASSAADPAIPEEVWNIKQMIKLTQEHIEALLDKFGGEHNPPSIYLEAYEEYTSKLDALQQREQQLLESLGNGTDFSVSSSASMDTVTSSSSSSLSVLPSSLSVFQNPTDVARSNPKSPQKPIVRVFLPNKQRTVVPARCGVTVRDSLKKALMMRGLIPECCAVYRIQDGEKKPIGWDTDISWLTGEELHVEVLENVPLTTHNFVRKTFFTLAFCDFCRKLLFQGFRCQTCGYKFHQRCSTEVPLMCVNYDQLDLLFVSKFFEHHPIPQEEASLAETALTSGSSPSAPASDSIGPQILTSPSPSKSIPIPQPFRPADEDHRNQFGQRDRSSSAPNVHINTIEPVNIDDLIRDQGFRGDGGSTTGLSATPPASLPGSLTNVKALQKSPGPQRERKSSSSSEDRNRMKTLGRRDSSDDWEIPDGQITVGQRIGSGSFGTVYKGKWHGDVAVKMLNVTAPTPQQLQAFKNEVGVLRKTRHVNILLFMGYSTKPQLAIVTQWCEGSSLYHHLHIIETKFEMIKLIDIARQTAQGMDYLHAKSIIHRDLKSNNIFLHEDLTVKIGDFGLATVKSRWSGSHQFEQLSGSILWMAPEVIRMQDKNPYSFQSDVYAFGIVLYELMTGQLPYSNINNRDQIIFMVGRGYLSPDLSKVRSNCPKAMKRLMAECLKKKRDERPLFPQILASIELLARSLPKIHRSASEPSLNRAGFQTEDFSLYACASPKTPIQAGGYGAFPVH

HL-60 [10] = experiment: Cell cycle arrest in human HL60 cells assessed as accumulation at G0/G1 phase at 25 uM after 48 hrs by propidium iodide staining-based flow cytometry (reference value: 57.0 +/- 1.0%); format: functional
[11] = biological target: Glycogen synthase kinase-3 beta (Homo sapiens, UniProt P49841); experiment: Inhibition of human recombinant GSK-3 beta after 30 mins by luminescence assay
Chain of Glycogen synthase kinase-3 beta (P49841 whole entry): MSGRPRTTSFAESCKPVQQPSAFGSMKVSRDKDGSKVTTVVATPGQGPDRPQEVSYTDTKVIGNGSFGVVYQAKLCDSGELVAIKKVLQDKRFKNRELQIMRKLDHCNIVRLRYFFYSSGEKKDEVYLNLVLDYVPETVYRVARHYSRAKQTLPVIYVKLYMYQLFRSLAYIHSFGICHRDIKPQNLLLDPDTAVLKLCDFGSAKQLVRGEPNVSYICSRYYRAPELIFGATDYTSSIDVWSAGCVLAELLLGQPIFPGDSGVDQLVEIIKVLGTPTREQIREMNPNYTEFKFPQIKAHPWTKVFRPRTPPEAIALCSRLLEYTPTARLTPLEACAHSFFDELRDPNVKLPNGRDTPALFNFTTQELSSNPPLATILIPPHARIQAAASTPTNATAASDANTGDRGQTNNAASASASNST

HL-60 [12] = experiment: Cell cycle arrest in human HL60 cells assessed as accumulation at pre-G1 phase at 1 uM after 48 hrs by propidium iodide staining-based flow cytometry (reference value: 0.17%); format: functional
HL-60 [13] = experiment: Cell cycle arrest in human HL60 cells assessed as accumulation at G0/G1 phase at 10 uM after 48 hrs by propidium iodide staining-based flow cytometry (reference value: 57.0 +/- 1.0%); format: functional
HL-60 [14] = experiment: Cell cycle arrest in human HL60 cells assessed as accumulation at pre-G1 phase at 50 uM after 48 hrs by propidium iodide staining-based flow cytometry (reference value: 0.17%); format: functional
HL-60 [15] = experiment: Cell cycle arrest in human HL60 cells assessed as accumulation at G0/G1 phase at 10 uM after 72 hrs by propidium iodide staining-based flow cytometry (reference value: 65.7 +/- 0.1%); format: functional
HL-60 [16] = experiment: Cell cycle arrest in human HL60 cells assessed as accumulation at S phase at 1 uM after 48 hrs by propidium iodide staining-based flow cytometry (reference value: 21.5 +/- 1.0%); format: functional
HL-60 [17] = experiment: Cell cycle arrest in human HL60 cells assessed as accumulation at G0/G1 phase at 50 uM after 72 hrs by propidium iodide staining-based flow cytometry (reference value: 65.7 +/- 0.1%); format: functional
HL-60 [18] = experiment: Cell cycle arrest in human HL60 cells assessed as accumulation at G0/G1 phase at 25 uM after 72 hrs by propidium iodide staining-based flow cytometry (reference value: 65.7 +/- 0.1%); format: functional
HL-60 [19] = experiment: Cell cycle arrest in human HL60 cells assessed as accumulation at pre-G1 phase at 25 uM after 48 hrs by propidium iodide staining-based flow cytometry (reference value: 0.17%); format: functional
HL-60 [20] = experiment: Cell cycle arrest in human HL60 cells assessed as accumulation at S phase at 10 uM after 48 hrs by propidium iodide staining-based flow cytometry (reference value: 21.5 +/- 1.0%); format: functional
HL-60 [21] = experiment: Cell cycle arrest in human HL60 cells assessed as accumulation at G2/M phase at 50 uM after 72 hrs by propidium iodide staining-based flow cytometry (reference value: 14.8 +/- 0.7%); format: functional
HL-60 [22] = experiment: Induction of apoptosis in human HL60 cells assessed as cell membrane blebbing at 50 uM after 72 hrs by microscopy relative to vehicle-treated control; format: functional, cell-based
HL-60 [23] = experiment: Cell cycle arrest in human HL60 cells assessed as accumulation at pre-G1 phase at 25 uM after 72 hrs by propidium iodide staining-based flow cytometry (reference value: 0.14%); format: functional
HL-60 [24] = experiment: Cell cycle arrest in human HL60 cells assessed as accumulation at Gn phase at 50 uM after 48 hrs by propidium iodide staining-based flow cytometry (reference value: 2.49 +/- 0.4%); format: functional
HL-60 [25] = experiment: Cell cycle arrest in human HL60 cells assessed as accumulation at Gn phase at 10 uM after 72 hrs by propidium iodide staining-based flow cytometry (reference value: 2.49 +/- 0.3%); format: functional
HL-60 [26] = experiment: Cell cycle arrest in human HL60 cells assessed as accumulation at pre-G1 phase at 10 uM after 48 hrs by propidium iodide staining-based flow cytometry (reference value: 0.17%); format: functional
HL-60 [27] = experiment: Cell cycle arrest in human HL60 cells assessed as accumulation at G2/M phase at 1 uM after 72 hrs by propidium iodide staining-based flow cytometry (reference value: 14.8 +/- 0.7%); format: functional
HL-60 [28] = experiment: Cell cycle arrest in human HL60 cells assessed as accumulation at Gn phase at 1 uM after 48 hrs by propidium iodide staining-based flow cytometry (reference value: 2.49 +/- 0.4%); format: functional
HL-60 [29] = experiment: Cell cycle arrest in human HL60 cells assessed as accumulation at S phase at 50 uM after 72 hrs by propidium iodide staining-based flow cytometry (reference value: 16.4 +/- 0.8%); format: functional
HL-60 [30] = experiment: Cell cycle arrest in human HL60 cells assessed as accumulation at S phase at 25 uM after 72 hrs by propidium iodide staining-based flow cytometry (reference value: 16.4 +/- 0.8%); format: functional
HL-60 [31] = experiment: Cytotoxicity against human HL60 cells after 72 hrs by Alamar Blue assay; format: functional, cell-based; conditions: HL-60, 72 h
HL-60 [32] = experiment: Cell cycle arrest in human HL60 cells assessed as accumulation at Gn phase at 10 uM after 48 hrs by propidium iodide staining-based flow cytometry (reference value: 2.49 +/- 0.4%); format: functional
HL-60 [33] = experiment: Cell cycle arrest in human HL60 cells assessed as accumulation at S phase at 25 uM after 48 hrs by propidium iodide staining-based flow cytometry (reference value: 21.5 +/- 1.0%); format: functional
HL-60 [34] = experiment: Cell cycle arrest in human HL60 cells assessed as accumulation at Gn phase at 50 uM after 72 hrs by propidium iodide staining-based flow cytometry (reference value: 2.49 +/- 0.3%); format: functional
HL-60 [35] = experiment: Cell cycle arrest in human HL60 cells assessed as accumulation at G2/M phase at 25 uM after 72 hrs by propidium iodide staining-based flow cytometry (reference value: 14.8 +/- 0.7%); format: functional

Work on `Cl.N=C(N)Nc1ccc(Oc2cccc(NC(=N)Nc3ccc(Cl)c(C(F)(F)F)c3)c2)cc1` yielded an Activity (HL-60 [1]) of 17.1%, an Activity (HL-60 [2]) of 25.1% and an Activity (HL-60 [3]) of 56.6%. The Activity (HL-60 [4]) was 61.7%, the Activity (HL-60 [5]) was “Active” and the IC50 [6] was > 100 µM. The Activity (HL-60 [7]) was 2.56%, the Activity (HL-60 [8]) was 20.4% and the Activity [9] was “inactive”. For the same molecule, the Activity (HL-60 [10]) was 69.2%, the IC50 [11] was > 100 µM and the Activity (HL-60 [12]) was 0.13%. It also gave an Activity (HL-60 [13]) of 68.9%, an Activity (HL-60 [14]) of 12.5% and an Activity (HL-60 [15]) of 61.3%. The Activity (HL-60 [16]) was 20.6%, the Activity (HL-60 [17]) was 43.7% and the Activity (HL-60 [18]) was 73.4%. For the same molecule, the Activity (HL-60 [19]) was 1.75%, the Activity (HL-60 [20]) was 14.7% and the Activity (HL-60 [21]) was 13.6%. For the same molecule, the Activity (HL-60 [22]) was “Active”, the Activity (HL-60 [23]) was 2.22% and the Activity (HL-60 [24]) was 3.14%. For the same molecule, the Activity (HL-60 [25]) was 3.36%, the Activity (HL-60 [26]) was 0.32% and the Activity (HL-60 [27]) was 16.7%. The Activity (HL-60 [28]) was 2.17%, the Activity (HL-60 [29]) was 14.4% and the Activity (HL-60 [30]) was 4.19%. It also gave an IC50 (HL-60 [31]) of 9.72 µM, an Activity (HL-60 [32]) of 2.17% and an Activity (HL-60 [33]) of 7.15%. The Activity (HL-60 [34]) was 1.75% and the Activity (HL-60 [35]) was 12.9%.
